Results taken from patent US20250171420A1 (Monte Rosa Therapeutics, Inc., priority 2022, published 2025).
Where two headings read alike, the source gives them in different places.

Legend:
CK1α = target: T1, CK1α (Homo sapiens, UniProt P48729); assay: CK1α NanoBit Assay (HiBiT-tagged CSNK1A1, HEK293 clonal lines); type: cell-based; details: HEK293 HiBiT-CSNK1A1/LgBiT cells, 24 h incubation
T1 construct: HEK293 clonal lines with CRISPR KI HiBiT tag on CSNK1A1
How it was run: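 HEK293 clones carrying a CRISPR knock-in HiBiT tag on CSNK1A1 and stably expressing LgBiT are treated with compound for 24 hours at 37° C, 5% CO2, then read by luminescence. Response is normalized as 100*(S−N)/(P−N) against plate negative and positive controls, and DC50 values are derived.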

LS174T cell line = assay: Growth inhibition, CyQUANT Direct Cell Proliferation Assay, LS174T; type: cell-based; details: Homo sapiens
Procedure: (§1) SKCO1, LS180, and LS174T cell lines were purchased from ATCC. CW2 cell line was purchased from Riken. GP2D cell line was purchased from Sigma/ECACC. All cell lines were cultured in manufacturer's recommended media at 37° C., 5% CO2. Briefly, cells were suspended in 200 μL of media and seeded at 300 to 1,800 cells per well in tissue culture treated 96-well plates with black walls and clear bottom. Plates were incubated overnight and initial (To) read was performed the following day using CyQUANT Direct Cell Proliferation Assay Kit (Thermo Fisher Scientific) according to manufacturer's protocol. All compounds were solubilized in DMSO and prepared at 3-fold serial dilution, using 9 points starting at 30 μM as highest concentration, administered to cells and incubated for 120 to 168 hours, at which point CyQUANT assay measurement was performed using Acumen Cellista instrument (Ex/Em 480/520 nm). Media-only wells were used as blank, and 0.3% DMSO was used as DMSO-treated cell control. Growth inhibition (percent response) was calculated using the following formula in Excel: “=if ([Compound treated Day N]>[Untreated Day 0, AVG], ([Compound treated Day N]−[Untreated Day 0, AVG])/([Untreated Day N]−[Untreated Day 0, AVG])*100, ([Compound Treated Day N]−[Untreated Day 0, AVG])/([Untreated Day 0, AVG])*100)”. GI50 is the response corresponding to the 50% of untreated control.
(§2) GI50 data are reported in Tables 4a, 4b, 4c, 4d, and 4e for compounds in Table 1. In Tables 4a, 4b, 4c, 4d, and 4e below, According to the code, A represents a GI50 value of ≤0.1 μM, B represents a GI50 value>0.1 μM and ≤1 μM, C represents an GI50 value>1 μM.

GP2D cell line = assay: Growth inhibition, CyQUANT Direct Cell Proliferation Assay, GP2D; type: cell-based
Procedure: as §1, §2

CW2 cell line = assay: Growth inhibition, CyQUANT Direct Cell Proliferation Assay, CW2; type: cell-based; details: Homo sapiens
Procedure: as §1, §2

SKCO1 cell line = assay: Growth inhibition, CyQUANT Direct Cell Proliferation Assay, SKCO1; type: cell-based; details: Homo sapiens
Procedure: as §1, §2

LS180 cell line = assay: Growth inhibition, CyQUANT Direct Cell Proliferation Assay, LS180; type: cell-based; details: Homo sapiens
Procedure: as §1, §2

CRBN/DDB1 = CRBN/DDB1 (Homo sapiens, UniProt Q96SW2); assay: HTRF binding assay (displacement of Cy5-thalidomide probe from CRBN/DDB1); details: CRBN/DDB1 2.5 nM, Cy5-Thalidomide 100 nM, 30 min; geometric mean; read-out: HTRF_Thali_Disp_DR_geo_IC50
How it was run: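 Compounds in a 10-point threefold dilution series were incubated 30 min at ambient temperature with 2.5 nM CRBN/DDB1, 100 nM Cy5-thalidomide probe and terbium anti-His donor (HEPES/NaCl/TCEP/EDTA/Tween20 buffer). IC50 came from 4-parameter fits of the 665/620 nm HTRF ratio; Ki used Cheng-Prusoff on geometric-mean IC50.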

[1] = SK-CO-1, read-out: SKCO1 GI50 (μM)
[2] = LS180, read-out: LS180 GI50 (μM)
[3] = 120 to 168 hours, read-out: LS174T GI50
[4] = GP2D, 120 to 168 hours, read-out: GP2D GI50
[5] = CW-2, CW2, 120 to 168 hours, read-out: CW2 GI50
[6] = SK-CO-1, SKCO1, 120 to 168 hours, read-out: SKCO1 GI50
[7] = LS180, 120 to 168 hours, read-out: LS180 GI50

Sequence of CRBN/DDB1 (Q96SW2 whole entry, species assumed): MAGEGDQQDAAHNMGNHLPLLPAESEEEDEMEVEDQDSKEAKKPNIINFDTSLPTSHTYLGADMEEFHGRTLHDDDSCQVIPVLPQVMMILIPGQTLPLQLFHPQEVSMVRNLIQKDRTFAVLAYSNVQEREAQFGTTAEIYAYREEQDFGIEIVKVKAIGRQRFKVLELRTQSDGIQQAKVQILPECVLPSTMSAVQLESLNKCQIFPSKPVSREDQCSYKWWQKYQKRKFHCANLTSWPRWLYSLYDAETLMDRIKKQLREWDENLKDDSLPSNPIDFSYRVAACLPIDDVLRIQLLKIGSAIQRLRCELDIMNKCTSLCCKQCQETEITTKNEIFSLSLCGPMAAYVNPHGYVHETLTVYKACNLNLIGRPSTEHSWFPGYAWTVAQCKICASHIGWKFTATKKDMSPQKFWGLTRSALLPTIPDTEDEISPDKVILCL
Sequence of CRBN/DDB1 (Q16531 whole entry partner, species assumed): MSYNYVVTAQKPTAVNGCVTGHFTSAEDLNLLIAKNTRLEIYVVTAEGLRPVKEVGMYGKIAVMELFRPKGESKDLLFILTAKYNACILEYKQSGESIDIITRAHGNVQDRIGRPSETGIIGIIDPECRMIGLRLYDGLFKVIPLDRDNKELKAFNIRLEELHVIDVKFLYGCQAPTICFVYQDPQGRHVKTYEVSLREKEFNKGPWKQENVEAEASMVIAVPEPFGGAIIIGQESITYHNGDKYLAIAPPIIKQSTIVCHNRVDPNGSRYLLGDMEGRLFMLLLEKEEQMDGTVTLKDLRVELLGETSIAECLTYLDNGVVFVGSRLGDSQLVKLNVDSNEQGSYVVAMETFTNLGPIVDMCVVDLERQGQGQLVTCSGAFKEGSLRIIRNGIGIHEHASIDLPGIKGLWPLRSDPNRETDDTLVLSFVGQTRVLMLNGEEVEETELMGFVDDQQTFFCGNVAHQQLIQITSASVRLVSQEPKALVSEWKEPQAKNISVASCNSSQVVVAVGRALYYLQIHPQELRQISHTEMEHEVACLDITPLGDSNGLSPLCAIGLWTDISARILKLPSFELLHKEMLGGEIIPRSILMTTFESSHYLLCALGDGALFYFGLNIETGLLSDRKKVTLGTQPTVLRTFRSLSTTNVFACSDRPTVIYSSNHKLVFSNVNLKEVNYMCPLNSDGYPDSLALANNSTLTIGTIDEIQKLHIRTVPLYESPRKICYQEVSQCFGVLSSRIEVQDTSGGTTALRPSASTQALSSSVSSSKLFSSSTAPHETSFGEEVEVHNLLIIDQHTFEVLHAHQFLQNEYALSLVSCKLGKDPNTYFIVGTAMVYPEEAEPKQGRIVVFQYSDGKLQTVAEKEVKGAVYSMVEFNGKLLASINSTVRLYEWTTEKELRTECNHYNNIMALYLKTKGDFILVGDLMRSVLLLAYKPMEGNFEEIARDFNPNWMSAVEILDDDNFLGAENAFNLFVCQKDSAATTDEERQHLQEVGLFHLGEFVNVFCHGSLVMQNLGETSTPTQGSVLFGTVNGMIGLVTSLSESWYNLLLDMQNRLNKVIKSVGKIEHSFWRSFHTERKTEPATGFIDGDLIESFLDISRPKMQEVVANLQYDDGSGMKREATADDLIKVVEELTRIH
T1 sequence (P48729 whole entry): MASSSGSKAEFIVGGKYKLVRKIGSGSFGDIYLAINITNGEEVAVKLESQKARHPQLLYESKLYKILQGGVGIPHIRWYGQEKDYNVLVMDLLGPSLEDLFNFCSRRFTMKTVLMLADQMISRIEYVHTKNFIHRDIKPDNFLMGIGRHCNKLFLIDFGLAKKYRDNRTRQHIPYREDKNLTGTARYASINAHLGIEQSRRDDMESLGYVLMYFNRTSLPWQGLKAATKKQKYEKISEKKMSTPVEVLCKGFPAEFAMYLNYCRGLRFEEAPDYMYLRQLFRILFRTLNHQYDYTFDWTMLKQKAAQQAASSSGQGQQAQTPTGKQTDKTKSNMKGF
T1 sequence (Q96SW2 whole entry, further chain): as the sequence (Q96SW2 whole entry, species assumed) above
T1 sequence (Q16531 2-1140 partner limits assumed): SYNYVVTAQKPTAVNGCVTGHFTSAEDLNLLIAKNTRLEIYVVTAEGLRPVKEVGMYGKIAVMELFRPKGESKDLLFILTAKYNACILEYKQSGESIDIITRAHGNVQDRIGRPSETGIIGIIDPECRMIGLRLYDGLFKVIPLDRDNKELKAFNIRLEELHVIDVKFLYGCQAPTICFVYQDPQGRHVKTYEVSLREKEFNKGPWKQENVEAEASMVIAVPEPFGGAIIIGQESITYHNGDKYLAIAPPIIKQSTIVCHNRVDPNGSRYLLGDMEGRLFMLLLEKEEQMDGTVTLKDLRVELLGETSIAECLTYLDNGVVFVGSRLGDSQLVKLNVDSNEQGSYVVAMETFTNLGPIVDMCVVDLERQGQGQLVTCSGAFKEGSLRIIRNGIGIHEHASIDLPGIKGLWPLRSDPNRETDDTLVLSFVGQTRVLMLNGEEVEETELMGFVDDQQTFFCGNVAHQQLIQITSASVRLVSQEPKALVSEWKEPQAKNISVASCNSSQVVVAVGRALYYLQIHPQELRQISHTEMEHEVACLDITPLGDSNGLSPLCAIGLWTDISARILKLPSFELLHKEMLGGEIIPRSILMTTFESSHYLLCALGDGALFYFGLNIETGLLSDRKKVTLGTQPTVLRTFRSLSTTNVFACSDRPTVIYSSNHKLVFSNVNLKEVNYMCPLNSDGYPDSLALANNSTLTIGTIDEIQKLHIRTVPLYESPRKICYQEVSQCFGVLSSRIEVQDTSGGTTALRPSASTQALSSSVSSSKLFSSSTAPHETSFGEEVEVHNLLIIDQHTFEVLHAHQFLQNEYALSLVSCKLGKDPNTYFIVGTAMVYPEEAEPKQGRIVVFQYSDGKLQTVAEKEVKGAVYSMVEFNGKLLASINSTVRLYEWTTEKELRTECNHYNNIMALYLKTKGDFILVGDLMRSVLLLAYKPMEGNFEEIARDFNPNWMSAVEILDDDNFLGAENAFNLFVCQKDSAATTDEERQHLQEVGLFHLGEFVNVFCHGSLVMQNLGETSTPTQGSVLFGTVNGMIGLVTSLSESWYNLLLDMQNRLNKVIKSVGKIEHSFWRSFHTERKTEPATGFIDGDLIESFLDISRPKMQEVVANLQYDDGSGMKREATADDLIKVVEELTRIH

Compound	DC50 (CK1α) [µM]	GI50 (LS174T cell line; read-out: LS174T GI50 (μM)) [µM]	GI50 (GP2D cell line; GP2d, read-out: GP2D GI50 (μM)) [µM]	GI50 (CW2 cell line; CW-2, read-out: CW2 GI50 (μM)) [µM]	GI50 (SKCO1 cell line; [1]) [µM]	GI50 (LS180 cell line; [2]) [µM]	IC50 (CRBN/DDB1) [nM]	GI50 (LS174T cell line; [3]) [µM]	GI50 (GP2D cell line; [4]) [µM]	GI50 (CW2 cell line; [5]) [µM]	GI50 (SKCO1 cell line; [6]) [µM]	GI50 (LS180 cell line; [7]) [µM]
O=C1CCC(N2Cc3cc(NC(=O)N4CCc5cc(F)ccc54)ccc3C2=O)C(=O)N1 (centres unmarked) [Compound 178, N-(2-(2,6-dioxopiperidin-3-yl)-1-oxoisoindolin-5-yl)-5-fluoroindoline-1-carboxamide]	< 0.1	0.1 to 1	0.1 to 1	0.1 to 1	0.1 to 1	0.1 to 1	100 to 1000	–	–	–	–	–
COC[C@@H]1Cc2ccccc2N1C(=O)Nc1ccc2c(c1)CN(C1CCC(=O)NC1=O)C2=O (stereo in doubt) [Compound 337, (S)—N-(2-((S)-2,6-dioxopiperidin-3-yl)-1-oxoisoindolin-5-yl)-2-(methoxymethyl)indoline-1-carboxamide]	< 0.1	–	–	–	–	–	100 to 1000	0.1 to 1	0.1 to 1	0.1 to 1	< 0.1	0.1 to 1
O=C1CCC(N2Cc3cc(NC(=O)N4CCc5c(F)cccc54)ccc3C2=O)C(=O)N1 (centres unmarked) [Compound 201, N-(2-(2,6-dioxopiperidin-3-yl)-1-oxoisoindolin-5-yl)-4-fluoroindoline-1-carboxamide]	< 0.1	–	–	–	–	–	> 1000	< 0.1	< 0.1	< 0.1	< 0.1	0.1 to 1
O=C1CCC(N2Cc3cc(NC(=O)N4CCc5c4cccc5C(F)(F)F)ccc3C2=O)C(=O)N1 (centres unmarked) [Compound 135, N-(2-(2,6-dioxopiperidin-3-yl)-1-oxoisoindolin-5-yl)-4-(trifluoromethyl)indoline-1-carboxamide]	< 0.1	0.1 to 1	< 0.1	< 0.1	< 0.1	0.1 to 1	100 to 1000	–	–	–	–	–
CC1(c2ccc3c(c2)CCN3C(=O)Nc2ccc3c(c2)CN(C2CCC(=O)NC2=O)C3=O)CC1 (centres unmarked) [Compound 344, N-(2-(2,6-dioxopiperidin-3-yl)-1-oxoisoindolin-5-yl)-5-(1-methylcyclopropyl)indoline-1-carboxamide]	< 0.1	–	–	–	–	–	100 to 1000	0.1 to 1	< 0.1	< 0.1	< 0.1	0.1 to 1
Cc1ccc2c(c1)CCN2C(=O)Nc1ccc2c(c1)CN(C1CCC(=O)NC1=O)C2=O (centres unmarked) [Compound 214, N-(2-(2,6-dioxopiperidin-3-yl)-1-oxoisoindolin-5-yl)-5-methylindoline-1-carboxamide]	< 0.1	–	–	–	–	–	100 to 1000	0.1 to 1	< 0.1	< 0.1	< 0.1	0.1 to 1
O=C1CCC(N2Cc3cc(NC(=O)N4CCc5cc(C6CCC6)ccc54)ccc3C2=O)C(=O)N1 (centres unmarked) [Compound 357, 5-cyclobutyl-N-(2-(2,6-dioxopiperidin-3-yl)-1-oxoisoindolin-5-yl)indoline-1-carboxamide]	< 0.1	< 0.1	< 0.1	< 0.1	< 0.1	0.1 to 1	> 1000	–	–	–	–	–
CC1(C)CN(C(=O)Nc2ccc3c(c2)CN(C2CCC(=O)NC2=O)C3=O)c2ccccc21 (centres unmarked) [Compound 124, N-(2-(2,6-dioxopiperidin-3-yl)-1-oxoisoindolin-5-yl)-3,3-dimethylindoline-1-carboxamide]	< 0.1	< 0.1	< 0.1	< 0.1	< 0.1	0.1 to 1	100 to 1000	–	–	–	–	–
N#Cc1cccc2c1CCN2C(=O)Nc1ccc2c(c1)CN(C1CCC(=O)NC1=O)C2=O (centres unmarked) [Compound 148, 4-cyano-N-(2-(2,6-dioxopiperidin-3-yl)-1-oxoisoindolin-5-yl)indoline-1-carboxamide]	< 0.1	–	–	–	–	–	< 100	0.1 to 1	0.1 to 1	0.1 to 1	0.1 to 1	0.1 to 1
O=C1CCC(N2Cc3cc(NC(=O)N4CCc5c(C6CC6)cccc54)ccc3C2=O)C(=O)N1 (centres unmarked) [Compound 164, 4-cyclopropyl-N-(2-(2,6-dioxopiperidin-3-yl)-1-oxoisoindolin-5-yl)indoline-1-carboxamide]	< 0.1	–	–	–	–	–	100 to 1000	< 0.1	< 0.1	< 0.1	< 0.1	0.1 to 1
O=C1CCC(N2Cc3cc(NC(=O)N4CCc5ccc(Cl)cc54)ccc3C2=O)C(=O)N1 (centres unmarked) [Compound 137, 6-chloro-N-(2-(2,6-dioxopiperidin-3-yl)-1-oxoisoindolin-5-yl)indoline-1-carboxamide]	< 0.1	0.1 to 1	0.1 to 1	< 0.1	0.1 to 1	0.1 to 1	100 to 1000	–	–	–	–	–
COC[C@H]1Cc2c(C3CC3)cccc2N1C(=O)Nc1ccc2c(c1)CN(C1CCC(=O)NC1=O)C2=O (stereo partly drawn) [Compound 332, (2R)-4-cyclopropyl-N-(2-(2,6-dioxopiperidin-3-yl)-1-oxoisoindolin-5-yl)-2-(methoxymethyl)indoline-1-carboxamide]	< 0.1	–	–	–	–	–	100 to 1000	0.1 to 1	0.1 to 1	< 0.1	0.1 to 1	0.1 to 1
CC1CN(C(=O)Nc2ccc3c(c2)CN(C2CCC(=O)NC2=O)C3=O)c2ccccc21 (stereo in doubt) [Compound 283, (3R)—N-(2-(2,6-dioxopiperidin-3-yl)-1-oxoisoindolin-5-yl)-3-methylindoline-1-carboxamide]	< 0.1	–	–	–	–	–	100 to 1000	0.1 to 1	< 0.1	0.1 to 1	< 0.1	0.1 to 1
O=C1CCC(N2Cc3cc(NC(=O)N4CCc5cc(C(F)(F)F)ncc54)ccc3C2=O)C(=O)N1 (centres unmarked) [Compound 287, N-(2-(2,6-dioxopiperidin-3-yl)-1-oxoisoindolin-5-yl)-5-(trifluoromethyl)-2,3-dihydro-1H-pyrrolo[2,3-c]pyridine-1-carboxamide]	< 0.1	< 0.1	< 0.1	< 0.1	< 0.1	0.1 to 1	100 to 1000	–	–	–	–	–
